# Experiments:
# GM3NPhAc = assay: ELISA analysis of GM3NPhAc-specific immune responses in immunized mice; format: in vivo
# Experimental: FIG. 1 relates to the ELISA analysis of GM3NPhAc-specific immune responses in mice. For ELISA assays, GM3NPhAc-HSA was used as the capture antigen. Goat anti-mouse kappa antibodies were used to detect antibodies bond to the capture antigen. Titers are determined by linear regression analysis and defined as the highest dilution yielding an optical density of 0.2. (a) GM3NPhAc-specific total antibody contents in day −1, 27 and 38 mice sera. Mice were immunized with 1N containing 15 μg of GM3NPhAc. Each line represents the antibody level in serum pooled from a group of five mice. (b) Comparison of GM3NPhAc-specific total antibody titers in day 38 mice sera. Mice were immunized with 1N containing 15, 6 or 3 μg of GM3NPhAc. (c) Comparison of immunological results of conjugates 1, 2 and T-1. 1N: conjugate 1 alone; 1A: conjugate 1+an external adjuvant; 2N: conjugate 2 alone; 2A: conjugate 2+an external adjuvant; T-1N: conjugate T-1 alone. Each dot represents the GM3NPhAc-specific immune response of individual mouse and the black lines represent the average antibody level of a group of five mice.
# FIG. 2 relates to the titer analysis of different isotypes of GM3NPhAc-specific antibodies induced by 1N (left) and T-1N (right). […] Titers are determined by linear regression analysis and defined as the highest dilution yielding an optical density of 0.2. […]
# 3T3 A31 cells = assay: In vitro glycoengineered expression of GM3NPhAc on cell surface, flow cytometry with mAb 2H3; format: cell-based, murine
# Experimental: (§1) FIG. 3 depicts histograms of the glycoengineering of B16F0 cells (a), 3T3 A31 cells (b) and SKMEL-28 cells (c) using ManNPhAc which induces expression of GM3NPhAc on the cell surface. Cells were cultured with 0, 0.01, 0.02 and 0.04 mM of ManNPhAc, stained with mAb 2H3, labeled with FITC-labeled goat anti-mouse kappa antibody, and analyzed by flow cytometry. Data are presented as raw histograms derived from 20,000 events.
# (§2) FIG. 4 depicts histograms of the glycoengineering of B16F0 (a) and 3T3 A31 (b) using NeuNPhAc induces expression of GM3NPhAc on the cell surface. Cells were cultured with 0, 0.01, 0.02 and 0.04 mM of NeuNPhAc, stained with mAb 2H3, labeled with FITC-labeled goat anti-mouse kappa antibody, and analyzed by flow cytometry. Data are presented as raw histograms derived from 10,000 events.
# (§3) B16F0, 3T3 A31 and SKMEL-28 cells were incubated with 0.01, 0.02 and 0.04 mM of ManNPhAc or NeuNPhAc, harvested at different time, washed with FACS buffer (phosphate-buffered saline (PBS) containing 1% bovine serum albumin), and incubated on ice for 15 minutes with 100 μL of normal mouse serum (NMS) diluted 1:100 in FACS buffer. Cells were washed 3 times with FACS buffer, and incubated for 30 minutes on ice with 100 μL of anti-GM3NPhAc mAb 2H3 (cell culture supernatant) diluted 1:10 in FACS buffer. Cells were washed again (3 times) and incubated for 30 minutes on ice with 1 μg of FITC-conjugated goat anti-mouse kappa antibody diluted in FACS buffer (100 μL). After washing 3 times with FACS buffer, the expression of GM3NPhAc on cell surfaces was evaluated on a Becton Dickenson FACScan flow cytometer. Data are presented as raw histograms derived from 20000 events.
# B16F0 cells = assay: as above; format: cell-based, murine
# Experimental: as §1, §2, §3
# SKMEL-28 cells = assay: as above; format: cell-based, human
# Experimental: as §1, §3
compound,measurement,setting,value
CCC(=O)OC1C(NC(=O)C[C@@H](CC)OC(=O)CC)[C@H](OCCNC(=O)CCC(=O)NCc2cn(CCOC3OC(CO)[C@@H](O[C@@H]4OC(CO)[C@H](O)C(O[C@]5(C(=O)O)CC(O)[C@@H](NC(=O)Cc6ccccc6)C([C@H](O)[C@H](O)CO)O5)C4O)C(O)C3O)nn2)OC(CO[C@@H]2OC(CO)[C@@H](OP(=O)(O)O)C(OC(=O)CC)C2NC(=O)C[C@@H](CC)OC(=O)CC)[C@H]1O (stereo partly drawn) [Compound T-1],"Isotypes of GM3NPhAc-specific antibodies (IgM, IgG1, IgG2a, IgG3)","GM3NPhAc; day 38 mice sera, conjugate alone","not only GM3NPhAc-specific IgM and IgG1 antibodies, but also much higher titers of IgG3 antibody"
same,GM3NPhAc-specific total antibody immune response,"GM3NPhAc; liposome of conjugate alone, no external adjuvant (groups 1N, 2N, T-1N), 15 μg of GM3NPhAc, s.c. day 0, 14, 21, 28",comparable to that induced by 1
O=C(Cc1ccccc1)N[C@H]1[C@H]([C@H](O)[C@H](O)CO)OC(O)(C(=O)O)C[C@@H]1O (stereo partly drawn) [NeuNPhAc],Utilization to express GM3NPhAc on cell surface,"3T3 A31 cells; 0.01, 0.02, 0.04 mM","much more efficiently to express GM3NPhAc, even better than B16F0 cancer cells"
same,Expression of GM3NPhAc on cell surface relative to ManNPhAc,"B16F0 cells; 72 hours, same concentrations (0.01, 0.02, 0.04 mM)",more significant expression of GM3NPhAc than that incubated with ManNPhAc
[2H]C(C(=O)N[C@@H]1C(O)O[C@H](CO)[C@@H](O)[C@@H]1O)c1ccccc1 (stereo partly drawn) [ManNPhAc],Cells showing labelling of GM3NPhAc,3T3 A31 cells; 0.01 mM,no 3T3 A31 cell showing labelling of GM3NPhAc
same,Labelling for GM3NPhAc compared to control group,3T3 A31 cells; 0.01 mM,no substantial labelling
same,Labelling for GM3NPhAc compared to control group,3T3 A31 cells; 0.02 mM,no substantial labelling
same,Labelling for GM3NPhAc compared to control group,3T3 A31 cells; 0.04 mM,started to show labelling
same,Cells showing labelling of GM3NPhAc,B16F0 cells; 0.01 mM,only partial B16F0 cell
same,Expression of GM3NPhAc on cell surface,"B16F0 cells; 0.01 mM, 72 hours",significant expression of GM3NPhAc
same,Concentration dependence of GM3NPhAc expression,"B16F0 cells; 0.01, 0.02, 0.04 mM, 72 hours",dependent on ManNPhAc concentrations
same,Cells showing significant GM3NPhAc labelling above the control group,"SKMEL-28 cells; 0.01 mM, 96 hours",100%
same,Expression of GM3NPhAc on cell surface,"SKMEL-28 cells; 0.02 mM, 96 hours",further increased
same,Expression of GM3NPhAc on cell surface,"SKMEL-28 cells; 0.04 mM, 96 hours",further increased
same,Concentration at which a plateau level of GM3NPhAc expression was reached,SKMEL-28 cells; data not shown,≥ 0.04 mM
